Measured values from patent publication US10294202B2, “Pyrrolidinones as herbicides” (FMC Corporation, priority 2013, dated 2019).

How the values were obtained:
velvetleaf = assay: Test A pre-/postemergence herbicide test; type: in vivo, Abutilon theophrasti
Summary of the method: (§1)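 Seeds sown in loam soil/sand blend received a preemergence directed soil spray of test chemical in non-phytotoxic solvent with surfactant; postemergence plants (2–10 cm, one- to two-leaf stage) were sprayed with the same formulation. After about 10 days in greenhouse, injury was rated visually versus untreated controls, 0 (no effect) to 100 (complete control).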

corn = assay: Test A pre-/postemergence herbicide test; type: in vivo, Zea mays
Summary of the method: as §1

ducksalad = assay: Test B flooded paddy test; type: in vivo, Heteranthera limosa; details: 250 g ai/ha, Flood; scale of 0 to 100 where 0 is no effect and 100 is complete control
Method: (§2) Plant species in the flooded paddy test selected from rice (Oryza sativa), sedge, umbrella (small-flower umbrella sedge, Cyperus difformis), ducksalad (Heteranthera limosa), and barnyardgrass (Echinochloa crus-galli) were grown to the 2-leaf stage for testing. At time of treatment, test pots were flooded to 3 cm above the soil surface, treated by application of test compounds directly to the paddy water, and then maintained at that water depth for the duration of the test. Treated plants and controls were maintained in a greenhouse for 13 to 15 days, after which time all species were compared to controls and visually evaluated. Plant response ratings, summarized in Table B, are based on a scale of 0 to 100 where 0 is no effect and 100 is complete control. A dash (-) response means no test result.

sedge, umbrella = assay: Test B flooded paddy test; type: in vivo, Cyperus difformis; details: 250 g ai/ha, Flood; scale of 0 to 100 where 0 is no effect and 100 is complete control
Method: as §2

pigweed = assay: Test A pre-/postemergence herbicide test; type: in vivo, Amaranthus retroflexus
Summary of the method: as §1

crabgrass, large = assay: Test A pre-/postemergence herbicide test; type: in vivo, Digitaria sanguinalis
Summary of the method: as §1

wheat = assay: Test A pre-/postemergence herbicide test; type: in vivo, Triticum aestivum
Summary of the method: as §1

barnyardgrass [1] = assay: Test A pre-/postemergence herbicide test; type: in vivo, Echinochloa crus-galli
Summary of the method: as §1

morningglory = assay: Test A pre-/postemergence herbicide test; type: in vivo, Ipomoea spp.
Summary of the method: as §1

giant foxtail = assay: Test A pre-/postemergence herbicide test; type: in vivo, Setaria faberii
Summary of the method: as §1

barnyardgrass [2] = assay: Test B flooded paddy test; type: in vivo, Echinochloa crus-galli; details: 250 g ai/ha, Flood; scale of 0 to 100 where 0 is no effect and 100 is complete control
Method: as §2

[3] = Postemergence, 125 g ai/ha, 0 to 100 scale, 0 no effect, 100 complete control
[4] = Postemergence, 500 g ai/ha, 0 to 100 scale (0 no effect, 100 complete control)
[5] = Preemergence, 125 g ai/ha, visual rating on 0 to 100 scale (0 no effect, 100 complete control)
[6] = preemergence, 500 g ai/ha, 0 to 100 scale

O=C1NCC(c2ccccc2)C1C(=O)Nc1ccccc1C(F)(F)F (racemic) [Compound 82]
Plant response rating, Velvetleaf (velvetleaf; [3]): 0 | Plant response rating, Velvetleaf (velvetleaf; [4]): 20 | Velvetleaf plant response rating (velvetleaf; [5]): 0 | Plant response rating, Velvetleaf (velvetleaf; [6]): 0 | Plant response rating, Corn (corn; [3]): 0 | Plant response rating, Corn (corn; [4]): 0 | Corn plant response rating (corn; [5]): 0 | Plant response rating, Corn (corn; [6]): 0 | Plant response rating, Ducksalad (ducksalad): 70 | Plant response rating, Sedge, Umbrella (sedge, umbrella): 80 | Plant response rating, Pigweed (pigweed; [3]): 0 | Plant response rating, Pigweed (pigweed; [4]): 0 | Pigweed plant response rating (pigweed; [5]): 0 | Plant response rating, Pigweed (pigweed; [6]): 0 | Plant response rating, Crabgrass, Large (crabgrass, large; [3]): 50 | Plant response rating, Crabgrass, Large (crabgrass, large; [4]): 70 | Crabgrass, Large plant response rating (crabgrass, large; [5]): 80 | Plant response rating, Crabgrass, Large (crabgrass, large; [6]): 90 | Plant response rating, Wheat (wheat; [3]): 0 | Plant response rating, Wheat (wheat; [4]): 10 | Wheat plant response rating (wheat; [5]): 0 | Plant response rating, Wheat (wheat; [6]): 0 | Plant response rating, Barnyardgrass (barnyardgrass [1]; [3]): 0 | Plant response rating, Barnyardgrass (barnyardgrass [1]; [4]): 50 | Barnyardgrass plant response rating (barnyardgrass [1]; [5]): 0 | Plant response rating, Barnyardgrass (barnyardgrass [1]; preemergence, 500 g ai/ha, 0 to 100 scale (0 no effect, 100 complete control)): 50 | Plant response rating, Morningglory (morningglory; [3]): 0 | Plant response rating, Morningglory (morningglory; [4]): 10 | Plant response rating, Morningglory (morningglory; [6]): 0 | Plant response rating, Foxtail, Giant (giant foxtail; [3]): 0 | Plant response rating, Foxtail, Giant (giant foxtail; [4]): 70 | Foxtail, Giant plant response rating (giant foxtail; [5]): 20 | Plant response rating, Foxtail, Giant (giant foxtail; [6]): 70 | Plant response rating, Barnyardgrass (barnyardgrass [2]): 0
